Results published in patent US8623885B2, “Fused tricyclic dual inhibitors of CDK 4/6 and FLT3” (Amgen Inc., priority 2011, dated 2014).

Experiments:
MOLM13 cells = test: [14C]-thymidine incorporation cell proliferation assay, MOLM13; type: cell-based, human; conditions: Homo sapiens, MOLM-13, 72 hour incubation
Experimental: The cell proliferation inhibition potency of the CDK4/6-FLT3 inhibitors was determined by using a [^14C]-thymidine incorporation assay. Exponentially growing cells (MOLM-13, Colo-205, etc.) were seeded in a 96-well Cytostar T plate (GE Healthcare Biosciences) at a density of 5×10^3 cells/well and incubated overnight. Serially diluted compounds and 0.1 μCi of [^14C]-thymidine (GE Healthcare Biosciences) were added to each well on the following day. After 72 hour incubation, isotope incorporation was determined with a β plate counter (Wallac). MOLM13 is a human AML tumor cell line expressing FLT3, FLT3^ITD and wild type Rb.
(§1) IC50 values of the compounds in the above assays were determined by non-linear regression analysis using Prism (GraphPad Software).

CDK4/Cyclin D1 = CDK4/Cyclin D1 (Homo sapiens (Human), UniProt P11802); test: CDK4 filtration kinase assay; type: biochemical; conditions: CDK4/Cyclin D1, Rb fragment substrate, [33P]-ATP filtration assay
Experimental: The CDK4 and CDK1 inhibitory activity of the CDK4/6-FLT3 inhibitors was determined with a filtration kinase assay. The compounds, kinase and substrate diluted in the kinase buffer (20 mM Tris, pH7.4, 50 mM NaCl, 1 mM DTT, 0.1% BSA) were sequentially added to a 96-well Multiscreen HTS filtration plate (Millipore). The final 100 μL reaction mixture in each well contained 0.3 μg of CDK4/Cyclin D1 or CDK1/Cyclin B (Cell Signaling Technology), 1 μg of Rb fragment (aa773-928, Millipore) for the CDK4 assay or 5 μg of histone H1 for the CDK1 assay and 1 μCi of [^33P]-ATP. The mixture was incubated at room temperature for 1 hour. The proteins in the reaction were then precipitated and washed with cold TCA solution using an aspiration/filtration vacuum system. The plates were dried at room temperature, and the retained radioactivity was measured by scintillation counting.
as §1

[1] = biological target: FLT3 enzyme (GST-FLT3 fusion) (Homo sapiens (Human), UniProt P36888); test: FLT3 HTRF kinase assay; type: biochemical; conditions: 116 μM ATP
Experimental: The FLT3 inhibitory activity of the CDK4/6-FLT3 inhibitors was determined with a HTRF kinase assay. The FLT3 enzyme (GST-FLT3 fusion) was purchased from Carna Biosciences. An ULight-labeled synthetic peptide derived from human Janus kinase 1 (aa1015-1027, ULight-JAK1, PerkinElmer) was utilized as the phosphoacceptor substrate. The assay was conducted in a 384-well white OptiPlate (PerkinElmer). The 20 μL reaction mixture contained 50 nM ULight-JAK1, 116 μM ATP, 0.0385 ng/μL FLT3 and dilutions of test compounds in the kinase buffer (50 mM Hepes, pH 7.6, 1 mM EGTA, 10 mM MgCl2, 2 mM DTT, and 0.005% Tween 20). The reaction was allowed to proceed for 1 hour at room temperature and was stopped by adding 20 μL of 10 mM EDTA, 2 nM LANCE® Eu-W1024 anti-phospho-tyrosine antibody in LANCE® detection buffer (PerkinElmer). The plates were incubated at room temperature for 2 hours after addition of detection reagents and then read on an Envision multimode reader (PerkinElmer).
as §1

FLT3 enzyme (GST-FLT3 fusion), sequence (P36888 27-993): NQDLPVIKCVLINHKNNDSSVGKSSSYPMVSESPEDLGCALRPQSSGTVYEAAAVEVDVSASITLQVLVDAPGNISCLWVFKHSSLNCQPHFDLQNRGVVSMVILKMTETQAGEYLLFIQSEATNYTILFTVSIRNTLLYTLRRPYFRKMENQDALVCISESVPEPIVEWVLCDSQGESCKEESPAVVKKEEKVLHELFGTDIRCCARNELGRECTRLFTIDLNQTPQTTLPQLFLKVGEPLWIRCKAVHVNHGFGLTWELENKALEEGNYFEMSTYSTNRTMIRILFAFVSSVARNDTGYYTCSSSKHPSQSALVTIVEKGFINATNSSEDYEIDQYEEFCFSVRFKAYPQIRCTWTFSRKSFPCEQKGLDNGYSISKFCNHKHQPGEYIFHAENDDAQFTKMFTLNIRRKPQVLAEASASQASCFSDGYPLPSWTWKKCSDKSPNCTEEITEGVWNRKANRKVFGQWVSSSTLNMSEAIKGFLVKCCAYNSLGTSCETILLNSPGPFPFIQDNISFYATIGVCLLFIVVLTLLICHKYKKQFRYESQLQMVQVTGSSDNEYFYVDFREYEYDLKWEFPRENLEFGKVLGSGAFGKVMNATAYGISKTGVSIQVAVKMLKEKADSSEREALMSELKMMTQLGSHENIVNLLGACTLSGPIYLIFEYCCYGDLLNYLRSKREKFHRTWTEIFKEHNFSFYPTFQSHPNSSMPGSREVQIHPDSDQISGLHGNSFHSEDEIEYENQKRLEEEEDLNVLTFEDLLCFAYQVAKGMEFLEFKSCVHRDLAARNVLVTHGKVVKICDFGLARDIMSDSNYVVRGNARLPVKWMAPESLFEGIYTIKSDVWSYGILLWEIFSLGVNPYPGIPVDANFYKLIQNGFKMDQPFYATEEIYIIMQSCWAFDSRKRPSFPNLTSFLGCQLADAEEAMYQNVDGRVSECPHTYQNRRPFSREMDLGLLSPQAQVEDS
CDK4/Cyclin D1, sequence (P11802 whole entry, the tested form may be a part): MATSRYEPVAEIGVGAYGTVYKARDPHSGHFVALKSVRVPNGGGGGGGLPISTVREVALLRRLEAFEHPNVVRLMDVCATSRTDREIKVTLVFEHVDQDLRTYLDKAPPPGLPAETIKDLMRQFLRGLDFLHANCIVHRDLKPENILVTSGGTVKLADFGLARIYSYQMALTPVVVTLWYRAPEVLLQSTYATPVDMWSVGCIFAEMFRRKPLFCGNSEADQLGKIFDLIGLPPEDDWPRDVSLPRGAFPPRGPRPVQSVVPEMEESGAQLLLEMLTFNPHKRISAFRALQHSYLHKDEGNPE
CDK4/Cyclin D1, sequence (P24385 whole entry partner, the tested form may be a part): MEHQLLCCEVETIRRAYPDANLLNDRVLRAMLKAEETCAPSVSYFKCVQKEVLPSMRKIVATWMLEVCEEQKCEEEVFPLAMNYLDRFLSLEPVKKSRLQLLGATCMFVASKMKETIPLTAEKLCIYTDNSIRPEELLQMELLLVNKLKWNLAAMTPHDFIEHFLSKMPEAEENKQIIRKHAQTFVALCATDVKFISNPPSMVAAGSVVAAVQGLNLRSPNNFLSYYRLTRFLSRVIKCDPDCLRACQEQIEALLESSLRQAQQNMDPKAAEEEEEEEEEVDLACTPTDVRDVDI

SMILES	IC50 (MOLM13 cells) [nM]	IC50 (CDK4/Cyclin D1) [nM]	IC50 [1] [nM]
C[C@H]1CC[C@H](n2c3cnccc3c3cnc(Nc4ccc5c(n4)CCN(CCO)C5)nc32)CC1 [Example 3, 2-(2-((9-((1r,4r)-4-Methylcyclohexyl)-9H-pyrido[4′,3′:4,5]pyrrolo[2,3-d]pyrimidin-2-yl)amino)-7,8-dihydro-1,6-naphthyridin-6(5H)-yl)ethanol]	14.8	2.6	1.8
CC1CN(CCO)Cc2ccc(Nc3ncc4c5ccncc5n([C@H]5CC[C@H](C)CC5)c4n3)nc21 (stereo partly shown) [Example 15, 2-(8-Methyl-2-((9-((1r,4r)-4-methylcyclohexyl)-9H-pyrido[4′,3′:4,5]pyrrolo[2,3-d]pyrimidin-2-yl)amino)-7,8-dihydro-1,6-naphthyridin-6(5H)-yl)ethanol]	29.5	20.3	3.1
COc1cc2c3cnc(Nc4ccc5c(n4)CCN(C(=O)CO)C5)nc3n([C@H]3CC[C@H](C)CC3)c2cn1 [Example 20, 2-Hydroxy-1-(2-((6-methoxy-9-((1r,4r)-4-methylcyclohexyl)-9H-pyrido[4′,3′:4,5]-pyrrolo[2,3-d]pyrimidin-2-yl)amino)-7,8-dihydro-1,6-naphthyridin-6(5H)-yl)ethanone]	208	847	144
C[C@H]1CC[C@H](n2c3cnccc3c3cnc(Nc4ccc5c(n4)CCNC5)nc32)CC1 [Example 1, 9-((1r,4r)-4-Methylcyclohexyl)-N-(5,6,7,8-tetrahydro-1,6-naphthyridin-2-yl)-9H-pyrido[4′,3′:4,5]pyrrolo[2,3-d]pyrimidin-2-amine]	15.2	2.1	1.3
C[C@H]1CC[C@H](n2c3cnccc3c3cnc(Nc4ccc5c(n4)CCN(CCCO)C5)nc32)CC1 [Example 4, 3-(2-((9-((1r,4r)-4-Methylcyclohexyl)-9H-pyrido[4′,3′:4,5]pyrrolo[2,3-d]pyrimidin-2-yl)amino)-7,8-dihydro-1,6-naphthyridin-6(5H)-yl)propan-1-ol]	21.1	4.6	2
C[C@H]1CC[C@H](n2c3cnccc3c3cnc(Nc4ccc5c(n4)CNCC5)nc32)CC1 [Example 23, 9-((1r,4r)-4-Methylcyclohexyl)-N-(5,6,7,8-tetrahydro-1,7-naphthyridin-2-yl)-9H-pyrido[4′,3′:4,5]pyrrolo[2,3-d]pyrimidin-2-amine]	1.5	8.6	–
COc1cc2c3cnc(Nc4ccc5c(n4)CCNC5)nc3n([C@H]3CC[C@H](C)CC3)c2cn1 [Example 19, 6-Methoxy-9-((1r,4r)-4-methylcyclohexyl)-N-(5,6,7,8-tetrahydro-1,6-naphthyridin-2-yl)-9H-pyrido[4′,3′:4,5]pyrrolo[2,3-d]pyrimidin-2-amine]	204	1790	33
C[C@H]1CC[C@H](n2c3cnccc3c3cnc(Nc4ccc5c(n4)CCN(CCF)C5)nc32)CC1 [Example 9, N-(6-(2-Fluoroethyl)-5,6,7,8-tetrahydro-1,6-naphthyridin-2-yl)-9-((1r,4r)-4-methylcyclohexyl)-9H-pyrido[4′,3′:4,5]pyrrolo[2,3-d]pyrimidin-2-amine]	64.9	72.8	3.4
C[C@H]1CC[C@H](n2c3cnccc3c3cnc(Nc4ccc5c(n4)CCN(CCC(F)(F)F)C5)nc32)CC1 [Example 7, 9-((1r,4r)-4-Methylcyclohexyl)-N-(6-(3,3,3-trifluoropropyl)-5,6,7,8-tetrahydro-1,6-naphthyridin-2-yl)-9H-pyrido[4′,3′:4,5]pyrrolo[2,3-d]pyrimidin-2-amine]	206	–	21.4
C[C@H]1CC[C@H](n2c3cnccc3c3cnc(Nc4ccc5c(n4)C(O)CN(CCO)C5)nc32)CC1 (stereo partly shown) [Example 17, 6-(2-Hydroxyethyl)-2-((9-((1r,4r)-4-methylcyclohexyl)-9H-pyrido[4′,3′:4,5]pyrrolo[2,3-d]pyrimidin-2-yl)amino)-5,6,7,8-tetrahydro-1,6-naphthyridin-8-ol]	21.9	–	–

Other lines, results leading:

IC50 (MOLM13 cells) [nM]	IC50 (CDK4/Cyclin D1) [nM]	IC50 [1] [nM]	SMILES
3.5	4.7	–	C[C@H]1CC[C@H](n2c3cnccc3c3cnc(Nc4cc5c(cn4)CNCC5)nc32)CC1 [Example 24, 9-((1r,4r)-4-Methylcyclohexyl)-N-(5,6,7,8-tetrahydro-2,7-naphthyridin-3-yl)-9H-pyrido[4′,3′:4,5]pyrrolo[2,3-d]pyrimidin-2-amine]
–	350	–	CC(C)(C)OC(=O)N1CCc2cc(Nc3ncc4c5ccncc5n([C@H]5CC[C@H](C)CC5)c4n3)ncc2C1 [Example 36, tert-Butyl 6-((9-((1r,4r)-4-methylcyclohexyl)-9H-pyrido[4′,3′:4,5]pyrrolo[2,3-d]pyrimidin-2-yl)amino)-3,4-dihydro-2,7-naphthyridine-2(1H)-carboxylate]
1.4	3	–	CCN(CC)CC(=O)N1CCc2nc(Nc3ncc4c5ccncc5n([C@H]5CC[C@H](C)CC5)c4n3)ccc2C1 [Example 37, 2-(Diethylamino)-1-(2-((9-((1r,4r)-4-methylcyclohexyl)-9H-pyrido[4′,3′:4,5]pyrrolo[2,3-d]pyrimidin-2-yl)amino)-7,8-dihydro-1,6-naphthyridin-6(5H)-yl)ethanone]
3.1	41	–	C[C@@H](O)C(=O)N1CCc2nc(Nc3ncc4c5ccncc5n([C@H]5CC[C@H](C)CC5)c4n3)ccc2C1 [Example 33, (R)-2-hydroxy-1-(2-((9-((1r,4r)-4-methylcyclohexyl)-9H-pyrido[4′,3′:4,5]pyrrolo[2,3-d]pyrimidin-2-yl)amino)-7,8-dihydro-1,6-naphthyridin-6(5H)-yl)propan-1-one]
> 3000	257	73.7	C[C@H]1CC[C@H](n2c3cnccc3c3cnc(Nc4cc5c(cn4)CCNC5)nc32)CC1 [Example 11, 9-((1r,4r)-4-Methylcyclohexyl)-N-(5,6,7,8-tetrahydro-2,6-naphthyridin-3-yl)-9H-pyrido[4′,3′:4,5]pyrrolo[2,3-d]pyrimidin-2-amine]
3	6.3	–	C[C@H]1CC[C@H](n2c3cnccc3c3cnc(Nc4ccc5c(n4)CN(C(=O)CO)CC5)nc32)CC1 [Example 30, 2-Hydroxy-1-(2-((9-((1r,4r)-4-methylcyclohexyl)-9H-pyrido[4′,3′:4,5]pyrrolo[2,3-d]pyrimidin-2-yl)amino)-5,6-dihydro-1,7-naphthyridin-7(8H)-yl)ethanone]
6.7	35	–	C[C@H]1CC[C@H](n2c3cnccc3c3cnc(Nc4cc5c(cn4)CN(C(=O)CO)CC5)nc32)CC1 [Example 31, 2-Hydroxy-1-(6-((9-((1r,4r)-4-methylcyclohexyl)-9H-pyrido[4′,3′:4,5]pyrrolo[2,3-d]pyrimidin-2-yl)amino)-3,4-dihydro-2,7-naphthyridin-2(1H)-yl)ethanone]
480	26	–	CC(C)(C)OC(=O)N1CCc2ccc(Nc3ncc4c5ccncc5n([C@H]5CC[C@H](C)CC5)c4n3)nc2C1 [Example 35, tert-Butyl 2-((9-((1r,4r)-4-methylcyclohexyl)-9H-pyrido[4′,3′:4,5]pyrrolo[2,3-d]pyrimidin-2-yl)amino)-5,6-dihydro-1,7-naphthyridine-7(8H)-carboxylate]
1.8	12	–	C[C@H](O)C(=O)N1CCc2nc(Nc3ncc4c5ccncc5n([C@H]5CC[C@H](C)CC5)c4n3)ccc2C1 [Example 32, (S)-2-Hydroxy-1-(2-((9-((1r,4r)-4-methylcyclohexyl)-9H-pyrido[4′,3′:4,5]pyrrolo[2,3-d]pyrimidin-2-yl)amino)-7,8-dihydro-1,6-naphthyridin-6(5H)-yl)propan-1-one]
0.3	3	–	CN(C)CC(=O)N1CCc2nc(Nc3ncc4c5ccncc5n([C@H]5CC[C@H](C)CC5)c4n3)ccc2C1 [Example 34, 2-(Dimethylamino)-1-(2-((9-((1r,4r)-4-methylcyclohexyl)-9H-pyrido[4′,3′:4,5]pyrrolo[2,3-d]pyrimidin-2-yl)amino)-7,8-dihydro-1,6-naphthyridin-6(5H)-yl)ethanone]
